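Test compounds were applied to cells in 96-well plates for 48 hours at 5 doses. TGI denotes the concentration required for complete inhibition of growth.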
Legend:
Test in all cases: NCI-60 cell line screen, 48 h
HL-60(TB) leukemia = test system: HL-60(TB) leukemia
COLO 205 colon = test system: COLO 205 colon
SF-295 CNS = test system: SF-295 CNS
MOLT-4 leukemia = test system: MOLT-4 leukemia
NCI-H522 lung = test system: NCI-H522 lung
OVCAR-4 ovarian = test system: OVCAR-4 ovarian
CAKI-1 renal = test system: CAKI-1 renal
NCI-H226 lung = test system: NCI-H226 lung
A549 NSCLC = test system: A549 NSCLC
U251 CNS = test system: U251 CNS
IGROV1 ovarian = test system: IGROV1 ovarian
HOP-18 NSCLC = test system: HOP-18 NSCLC
HOP-62 NSCLC = test system: HOP-62 NSCLC
LXFL 529 NSCLC = test system: LXFL 529 NSCLC
MALME-3M melanoma = test system: MALME-3M melanoma
UACC-257 melanoma = test system: UACC-257 melanoma
DMS 273 small cell lung = test system: DMS 273 small cell lung
SNB-19 CNS = test system: SNB-19 CNS
SN12C renal = test system: SN12C renal
UACC-62 melanoma = test system: UACC-62 melanoma
SK-OV-3 ovarian = test system: SK-OV-3 ovarian
M19-MEL melanoma = test system: M19-MEL melanoma
DLD-1 colon = test system: DLD-1 colon
OVCAR-3 ovarian = test system: OVCAR-3 ovarian
UO-31 renal = test system: UO-31 renal
SF-539 CNS = test system: SF-539 CNS
KM12 colon = test system: KM12 colon
DMS 114 small cell lung = test system: DMS 114 small cell lung
ACHN renal = test system: ACHN renal
EKVX NSCLC = test system: EKVX NSCLC
SNB-78 CNS = test system: SNB-78 CNS
SK-MEL-2 melanoma = test system: SK-MEL-2 melanoma
CCRF-CEM leukemia = test system: CCRF-CEM leukemia
OVCAR-5 ovarian = test system: OVCAR-5 ovarian
LOX IMVI melanoma = test system: LOX IMVI melanoma
HOP-92 NSCLC = test system: HOP-92 NSCLC
HCT-116 colon = test system: HCT-116 colon
A498 renal = test system: A498 renal
HCC-2998 colon = test system: HCC-2998 colon
786-0 renal = test system: 786-0 renal
NCI-H23 lung = test system: NCI-H23 lung
SNB-75 CNS = test system: SNB-75 CNS
OVCAR-8 ovarian = test system: OVCAR-8 ovarian
HT29 colon = test system: HT29 colon
RXF-631 renal = test system: RXF-631 renal
KM20L2 colon = test system: KM20L2 colon
TK-10 renal = test system: TK-10 renal
HCT-15 colon = test system: HCT-15 colon
NCI-H460 lung = test system: NCI-H460 lung
SF-268 CNS = test system: SF-268 CNS
SK-MEL-28 melanoma = test system: SK-MEL-28 melanoma
RXF 393 renal = test system: RXF 393 renal
M14 melanoma = test system: M14 melanoma
SK-MEL-5 melanoma = test system: SK-MEL-5 melanoma
K-562 leukemia = test system: K-562 leukemia
SW-620 colon = test system: SW-620 colon

Measured: TGI

CC1=CC(=O)N(c2c(C)cccc2Cl)C(C)N1 (configuration not stated)
> 100 µM: all assays above

Cc1ccccc1-n1c(C)nc(-c2ccccc2)cc1=O
> 100 µM: all assays above
